# Results taken from ChEMBL document CHEMBL4359853, “Antiproliferative activity of (R)-4'-methylklavuzon on hepatocellular carcinoma cells and EpCAM+/CD133+ cancer stem cells via SIRT1 and Exportin-1 (CRM1) inhibition” (Eur J Med Chem, 2019).
# Active and inactive are the calls of the source. The rule behind the calls is not given here.
# What was measured:
# [1] = target: T1, NAD-dependent protein deacetylase sirtuin-1 (Homo sapiens) (UniProt Q96EB6); test: Inhibition of human recombinant SIRT1 at 100 uM using FLUOR DE LYS SIRT1, deacetylase as substrate preincubated for 2 mins followed by substrate addition measured after 1 hr in presence of NAD+ by fluorescence assay relative to control
# T1 sequence (whole entry): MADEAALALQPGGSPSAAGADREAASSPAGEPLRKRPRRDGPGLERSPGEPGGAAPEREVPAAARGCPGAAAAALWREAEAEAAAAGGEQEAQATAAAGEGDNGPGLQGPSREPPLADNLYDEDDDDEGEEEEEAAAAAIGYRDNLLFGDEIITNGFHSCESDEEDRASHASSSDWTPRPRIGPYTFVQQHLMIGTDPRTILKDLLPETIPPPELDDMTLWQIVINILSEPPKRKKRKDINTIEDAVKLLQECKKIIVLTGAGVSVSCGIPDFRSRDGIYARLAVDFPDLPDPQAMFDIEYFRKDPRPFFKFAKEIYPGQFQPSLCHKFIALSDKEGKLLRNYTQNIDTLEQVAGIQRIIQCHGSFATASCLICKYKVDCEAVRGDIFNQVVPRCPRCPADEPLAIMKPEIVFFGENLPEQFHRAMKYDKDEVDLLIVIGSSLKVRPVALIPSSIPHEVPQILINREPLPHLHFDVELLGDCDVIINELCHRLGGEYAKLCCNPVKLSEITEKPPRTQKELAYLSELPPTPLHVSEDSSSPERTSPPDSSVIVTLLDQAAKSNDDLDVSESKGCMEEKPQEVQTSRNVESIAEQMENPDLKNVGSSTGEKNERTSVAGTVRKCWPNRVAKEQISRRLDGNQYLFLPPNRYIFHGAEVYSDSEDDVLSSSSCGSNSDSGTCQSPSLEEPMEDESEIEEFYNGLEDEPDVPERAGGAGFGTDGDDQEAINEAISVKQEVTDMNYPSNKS
# Huh-7 [2] = test: Upregulation of p21 expression in human HuH7 cells at 1 to 3 uM measured after 24 to 72 hrs by SYBR-green based qPCR analysis; type: functional, cell-based
# Huh-7 [3] = test: Induction of reactive oxygen species generation in human HuH7 cells at 1 uM measured after 24 hrs by DCFDA staining assay; type: functional, cell-based
# Huh-7 [4] = test: Induction of apoptosis in human HuH7 negative EpCAM/CD133 cells assessed as increase in early apoptotic cells measured after 48 hrs by Annexin V-FITC/propidium iodide staining based flow cytometry analysis; type: functional, cell-based
# Huh-7 [5] = test: Induction of apoptosis in human HuH7 cells assessed as increase in early apoptotic cells at 10 uM measured after 48 hrs by Annexin V-FITC/propidium iodide staining based flow cytometry analysis; type: functional, cell-based
# Huh-7 [6] = test: Cell cycle arrest in human HuH7 cells assessed as increase in accumulation at G1 phase at 1 to 1.25 uM measured after 48 hrs by propidium iodide staining based flow cytometry analysis; type: functional
# Huh-7 [7] = test: Induction of apoptosis in human HuH7 cells assessed as change in cell morphology at 0.1 to 10 uM measured after 48 hrs by 2D microscopic analysis; type: functional, cell-based
# Huh-7 [8] = test: Induction of apoptosis in human HuH7 cells assessed as change in cell numbers at 0.1 to 10 uM measured after 48 hrs by 2D microscopic analysis; type: functional, cell-based
# [9] = target: Exportin-1 (Homo sapiens) (UniProt O14980); test: Inhibition of CRM1 in human HuH7 cells assessed as accumulation of RIOK2 in nucleus at 0.1 to 10 uM measured after 6 hrs by DAPI staining based confocal microscopy analysis; type: cell-based
# Chain of Exportin-1 (Homo sapiens) (O14980 whole entry): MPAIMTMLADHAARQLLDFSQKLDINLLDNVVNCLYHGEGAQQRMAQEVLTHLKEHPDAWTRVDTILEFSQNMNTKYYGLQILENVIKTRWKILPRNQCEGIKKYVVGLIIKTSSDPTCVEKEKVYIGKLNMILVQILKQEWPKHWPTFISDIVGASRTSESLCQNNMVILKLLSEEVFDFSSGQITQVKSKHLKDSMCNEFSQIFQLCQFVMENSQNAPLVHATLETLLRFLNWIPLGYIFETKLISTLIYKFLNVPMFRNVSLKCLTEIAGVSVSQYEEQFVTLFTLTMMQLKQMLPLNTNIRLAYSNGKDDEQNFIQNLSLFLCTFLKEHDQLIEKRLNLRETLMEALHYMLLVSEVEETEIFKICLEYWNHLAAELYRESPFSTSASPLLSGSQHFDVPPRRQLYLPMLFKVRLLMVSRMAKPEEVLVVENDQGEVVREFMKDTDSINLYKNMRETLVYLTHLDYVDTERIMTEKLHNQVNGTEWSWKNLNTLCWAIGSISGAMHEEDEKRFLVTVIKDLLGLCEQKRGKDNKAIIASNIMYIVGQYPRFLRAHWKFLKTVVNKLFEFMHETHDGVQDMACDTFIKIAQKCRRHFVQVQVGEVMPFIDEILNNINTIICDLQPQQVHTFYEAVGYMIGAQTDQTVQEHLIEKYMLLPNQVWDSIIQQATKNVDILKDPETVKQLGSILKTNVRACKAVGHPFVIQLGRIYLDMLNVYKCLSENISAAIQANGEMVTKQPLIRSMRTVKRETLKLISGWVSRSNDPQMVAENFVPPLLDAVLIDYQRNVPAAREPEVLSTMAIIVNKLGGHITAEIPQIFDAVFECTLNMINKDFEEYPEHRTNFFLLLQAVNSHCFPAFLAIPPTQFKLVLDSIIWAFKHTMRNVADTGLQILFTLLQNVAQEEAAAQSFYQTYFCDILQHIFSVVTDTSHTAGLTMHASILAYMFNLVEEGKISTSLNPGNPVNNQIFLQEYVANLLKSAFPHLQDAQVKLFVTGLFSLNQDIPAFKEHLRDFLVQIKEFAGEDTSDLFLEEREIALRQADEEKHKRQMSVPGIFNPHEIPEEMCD
# Huh-7 [10] = test: Induction of apoptosis in human HuH7 cells expressing positive EpCAM/CD133 assessed as change in cell morphology at 0.1 to 10 uM measured after 48 hrs by 2D microscopic analysis; type: functional, cell-based
# Huh-7 [11] = test: Cell cycle arrest in human HuH7 negative EpCAM/CD133 cells assessed as increase in accumulation at G1 phase at 10 uM measured after 48 hrs by propidium iodide staining based flow cytometry analysis; type: functional
# Homo sapiens [12] = organism: Homo sapiens; test: Inhibition of class 1/2 HDAC in human HuH7 negative EpCAM/CD133 cells nuclear extract at 0.1 to 81 uM after 24 hrs by fluorescence based assay
# Huh-7 [13] = test: Cytotoxicity against human HuH7 cells assessed as effect on SIRT1 protein level at 5 uM measured after 24 hrs by ELISA; type: functional, cell-based
# Huh-7 [14] = test: Cytotoxicity against human HuH7 cells negative EpCAM/CD133 assessed as reduction in cell viability measured after 48 to 72 hrs by MTT assay; type: functional, cell-based
# Homo sapiens [15] = organism: Homo sapiens; test: Inhibition of Sirtuin/HDAC in human HUH7 cells assessed as decrease in cell viability measured after 24 hrs; type: cell-based
# Homo sapiens [16] = organism: Homo sapiens; test: Inhibition of class 1/2 HDAC in human HuH7 nuclear extract at 0.1 to 81 uM after 24 hrs by fluorescence based assay
# HepG2 [17] = test: Induction of apoptosis in human 3D HepG2 spheroids at 0.1 uM measured after 24 hrs by propidium iodide staining based immunofluorescence microscopy analysis; type: functional, cell-based
# [18] = target: Histone-lysine N-methyltransferase EZH2 (Homo sapiens) (UniProt Q15910); test: Activation of EZH2 in human HuH7 cells assessed as upregulation of H3K27me3 expression measured after 4 hrs by Western blot analysis; type: cell-based
# Chain of Histone-lysine N-methyltransferase EZH2 (Homo sapiens) (Q15910 whole entry, looked up): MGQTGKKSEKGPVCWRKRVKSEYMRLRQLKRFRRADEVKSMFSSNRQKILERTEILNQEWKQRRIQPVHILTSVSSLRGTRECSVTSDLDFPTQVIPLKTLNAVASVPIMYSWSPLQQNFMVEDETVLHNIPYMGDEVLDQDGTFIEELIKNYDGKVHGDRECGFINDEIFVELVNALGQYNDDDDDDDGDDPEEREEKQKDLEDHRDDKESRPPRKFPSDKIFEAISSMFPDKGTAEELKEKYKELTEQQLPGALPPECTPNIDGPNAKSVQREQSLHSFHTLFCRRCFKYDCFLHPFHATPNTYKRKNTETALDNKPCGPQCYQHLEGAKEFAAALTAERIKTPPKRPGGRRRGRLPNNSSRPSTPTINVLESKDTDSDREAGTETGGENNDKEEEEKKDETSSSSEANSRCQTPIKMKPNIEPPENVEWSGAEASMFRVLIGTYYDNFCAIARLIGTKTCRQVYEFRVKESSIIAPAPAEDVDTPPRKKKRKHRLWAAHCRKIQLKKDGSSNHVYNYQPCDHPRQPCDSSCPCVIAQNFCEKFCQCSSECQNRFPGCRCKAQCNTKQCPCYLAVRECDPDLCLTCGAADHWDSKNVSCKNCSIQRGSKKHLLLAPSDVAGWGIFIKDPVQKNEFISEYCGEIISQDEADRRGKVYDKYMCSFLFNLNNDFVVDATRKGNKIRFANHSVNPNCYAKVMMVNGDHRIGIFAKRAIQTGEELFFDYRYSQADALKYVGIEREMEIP
# Homo sapiens [19] = organism: Homo sapiens; test: Inhibition of Sirtuin/HDAC in human HUH7 negative EpCAM/CD133 cells assessed as decrease in enzymatic activity at 0.10 to 5 uM measured after 24 hrs relative to control
# Huh-7 [20] = test: Upregulation of p27 expression in human HuH7 cells at 1 to 3 uM measured after 24 to 72 hrs by SYBR-green based qPCR analysis; type: functional, cell-based
# [21] = target: Histone deacetylase 1 (Homo sapiens) (UniProt Q13547); test: Inhibition of human recombinant HDAC1 using FLUOR DE LYS SIRT1, deacetylase as substrate preincubated for 2 mins followed by substrate addition measured after 1 hr by fluorescence assay
# Chain of Histone deacetylase 1 (Homo sapiens) (Q13547 whole entry): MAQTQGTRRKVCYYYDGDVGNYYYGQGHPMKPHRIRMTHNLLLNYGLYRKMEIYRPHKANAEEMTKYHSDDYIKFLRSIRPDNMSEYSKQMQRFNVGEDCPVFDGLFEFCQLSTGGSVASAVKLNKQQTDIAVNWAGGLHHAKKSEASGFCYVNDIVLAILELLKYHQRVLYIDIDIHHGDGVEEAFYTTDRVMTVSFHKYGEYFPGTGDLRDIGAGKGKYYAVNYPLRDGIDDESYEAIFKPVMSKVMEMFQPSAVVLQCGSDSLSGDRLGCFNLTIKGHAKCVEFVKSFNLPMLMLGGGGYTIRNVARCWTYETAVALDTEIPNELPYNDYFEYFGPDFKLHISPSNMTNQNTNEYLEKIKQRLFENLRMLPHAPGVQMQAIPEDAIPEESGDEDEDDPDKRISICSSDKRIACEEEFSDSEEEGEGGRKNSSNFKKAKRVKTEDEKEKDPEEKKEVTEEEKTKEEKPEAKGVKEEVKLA
# Homo sapiens [22] = organism: Homo sapiens; test: Inhibition of Sirtuin/HDAC in human HUH7 cells assessed as decrease in enzymatic activity at 0.10 to 5 uM measured after 24 hrs relative to control; type: cell-based
# Huh-7 [23] = test: Induction of apoptosis in human HuH7 cells expressing negative EpCAM/CD133 assessed as change in cell number at 0.1 to 10 uM measured after 48 hrs by 2D microscopic analysis; type: functional, cell-based
# Huh-7 [24] = test: Upregulation of p21 expression in human HuH7 cells expressing positive EpCAM/CD133 at 1 to 3 uM measured after 72 hrs by SYBR-green based qPCR analysis; type: functional, cell-based
# HepG2 [25] = test: Cytotoxicity against human HepG2 cells assessed as reduction in cell viability measured after 72 hrs by MTT assay; type: functional, cell-based; conditions: HepG2, 72 h
# [26] = target: Exportin-1 (Homo sapiens) (UniProt O14980); test: Inhibition of CRM1 in human HepG2 cells assessed as upregulation of p53 by measuring accumulation in nucleus at 0.1 to 10 uM measured after 6 to 24 hrs by DAPI staining based immunofluorescence microscopy analysis; type: cell-based
# Huh-7 [27] = test: Upregulation of SIRT1 in human HuH7 cells assessed as fold change at 3 uM measured after 24 hrs by ELISA relative to control; type: functional
compound,measurement,setting,value
Cc1ccc([C@H]2CC=CC(=O)O2)c2ccccc12,inhibition,[1],50%
same,Activity,Huh-7 [2],Active
same,Activity,Huh-7 [3],Active
same,Activity,Huh-7 [4],Dose-dependent effect
same,Activity,Huh-7 [5],Active
same,Activity,Huh-7 [6],Active
same,Activity,Huh-7 [7],Active
same,Activity,Huh-7 [8],Active
same,inhibition,[9],Active
same,Activity,Huh-7 [10],Active
same,Activity,Huh-7 [11],Active
same,Activity,Homo sapiens [12],inactive
same,Activity,Huh-7 [13],Active
same,IC50,Huh-7 [14],1250 nM
same,inhibition,Homo sapiens [15],Active
same,inhibition,Homo sapiens [16],inactive
same,Activity,HepG2 [17],inactive
same,Activity,[18],Active
same,Activity,Homo sapiens [19],Active
same,Activity,Huh-7 [20],Active
same,inhibition,[21],inactive
same,inhibition,Homo sapiens [22],35 to 40%
same,Activity,Huh-7 [23],Active
same,Activity,Huh-7 [24],Active
same,IC50,HepG2 [25],100 nM
same,inhibition,[26],Active
same,fold change (FC),Huh-7 [27],3.9
